Reference: US9884842B2, “Combretastatin analogs” (The Board of Trustees of the University of Arkansas, priority 2013, dated 2018)

Legend:
HL-60(TB) = experiment: cells; conditions: Homo sapiens
OVCAR-3 = experiment: cells; conditions: Homo sapiens
K-562 = experiment: NCI growth inhibition and cytotoxicity screen, Leukemia panel; conditions: Homo sapiens
MOLT-4 = experiment: as above; conditions: Homo sapiens
M14 = experiment: NCI growth inhibition and cytotoxicity screen, Melanoma panel; conditions: Homo sapiens
MDA-MB-435 = experiment: as above; conditions: Homo sapiens
UACC-62 = experiment: as above; conditions: Homo sapiens
SF-268 = experiment: NCI growth inhibition and cytotoxicity screen, CNS Cancer panel; conditions: Homo sapiens
SNB-19 = experiment: as above; conditions: Homo sapiens
SNB-75 = experiment: as above; conditions: Homo sapiens
U251 = experiment: as above; conditions: Homo sapiens
HOP-92 = experiment: NCI growth inhibition and cytotoxicity screen, Lung Cancer panel; conditions: Homo sapiens
NCI-H23 = experiment: as above; conditions: Homo sapiens
NCI-H322M = experiment: as above; conditions: Homo sapiens
NCI-H460 = experiment: as above; conditions: Homo sapiens
COLO 205 = experiment: NCI growth inhibition and cytotoxicity screen, Colon Cancer panel; conditions: Homo sapiens
HCC-2998 = experiment: as above; conditions: Homo sapiens
HCT-15 = experiment: as above; conditions: Homo sapiens
786-0 = experiment: NCI growth inhibition and cytotoxicity screen, Renal Cancer panel; conditions: Homo sapiens
CAKI-1 = experiment: as above; conditions: Homo sapiens
TK-10 = experiment: as above; conditions: Homo sapiens
UO-31 = experiment: as above; conditions: Homo sapiens
MCF7 = experiment: NCI growth inhibition and cytotoxicity screen, Breast Cancer panel; conditions: Homo sapiens
MDA-MB-231/ATCC = experiment: as above; conditions: Homo sapiens
HS 578T = experiment: as above; conditions: Homo sapiens
T-47D = experiment: as above; conditions: Homo sapiens, T47D
IGROV1 = experiment: NCI growth inhibition and cytotoxicity screen, Ovarian Cancer panel; conditions: Homo sapiens
OVCAR-4 = experiment: as above; conditions: Homo sapiens
OVCAR-5 = experiment: as above; conditions: Homo sapiens
NCI/ADR-RES = experiment: as above; conditions: Homo sapiens
SK-OV-3 = experiment: as above; conditions: Homo sapiens

For `COc1cc(/C(C#N)=C\c2cc3ccccc3s2)cc(OC)c1OC` [Formula (I)(a)], the GI50 (HL-60(TB); HL-60) was under 10 nM, the CC50 (HL-60(TB); HL-60, read-out: LC50) was over 100 µM and the GI50 (OVCAR-3; OVCAR-3) was under 10 nM. It also gave a CC50 (OVCAR-3; OVCAR-3, read-out: LC50) of over 100 µM, a GI50 (K-562; K562) of under 10 nM and a CC50 (K-562; K562, read-out: LC50) of over 100 µM. For the same molecule, the GI50 (MOLT-4; MOLT-4) was under 10 nM, the CC50 (MOLT-4; MOLT-4, read-out: LC50) was over 100 µM and the GI50 (M14; M14) was under 10 nM. It also gave a CC50 (M14; M14, read-out: LC50) of over 100 µM, a GI50 (MDA-MB-435; MDA-MB-435) of under 10 nM and a CC50 (MDA-MB-435; MDA-MB-435, read-out: LC50) of over 100 µM. The GI50 (UACC-62; UACC-62) was under 10 nM, the CC50 (UACC-62; UACC-62, read-out: LC50) was over 100 µM and the GI50 (SF-268; SF-268) was under 10 nM. It also gave a CC50 (SF-268; SF-268, read-out: LC50) of over 100 µM, a GI50 (SNB-19; SNB-19) of 39.1 nM and a CC50 (SNB-19; SNB-19, read-out: LC50) of over 100 µM. For the same molecule, the GI50 (SNB-75; SNB-75) was under 10 nM, the CC50 (SNB-75; SNB-75, read-out: LC50) was over 100 µM and the GI50 (U251; U-251) was under 10 nM. The CC50 (U251; U-251, read-out: LC50) was over 100 µM, the GI50 (HOP-92; HOP-92) was under 10 nM and the CC50 (HOP-92; HOP-92, read-out: LC50) was over 100 µM. It also gave a GI50 (NCI-H23; NCI-H23) of under 10 nM, a CC50 (NCI-H23; NCI-H23, read-out: LC50) of over 100 µM and a GI50 (NCI-H322M) of 18.3 nM. The CC50 (NCI-H322M; read-out: LC50) was over 100 µM, the GI50 (NCI-H460; NCI-H460) was under 10 nM and the CC50 (NCI-H460; NCI-H460, read-out: LC50) was over 100 µM. For the same molecule, the GI50 (COLO 205; COLO 205) was under 10 nM, the CC50 (COLO 205; COLO 205, read-out: LC50) was 250 nM and the GI50 (HCC-2998; HCC 2998) was 19.2 nM. For the same molecule, the CC50 (HCC-2998; HCC 2998, read-out: LC50) was over 100 µM, the GI50 (HCT-15; HCT-15) was under 10 nM and the CC50 (HCT-15; HCT-15, read-out: LC50) was over 100 µM. For the same molecule, the GI50 (786-0; 786-0) was under 10 nM, the CC50 (786-0; 786-0, read-out: LC50) was over 100 µM and the GI50 (CAKI-1; CAKI-1) was 37.8 nM. It also gave a CC50 (CAKI-1; CAKI-1, read-out: LC50) of over 100 µM, a GI50 (TK-10; TK-10) of under 10 nM and a CC50 (TK-10; TK-10, read-out: LC50) of over 100 µM. It also gave a GI50 (UO-31; UO-31) of under 10 nM, a CC50 (UO-31; UO-31, read-out: LC50) of over 100 µM and a GI50 (MCF7; MCF7) of under 10 nM. It also gave a CC50 (MCF7; MCF7, read-out: LC50) of over 100 µM, a GI50 (MDA-MB-231/ATCC; MDA-MB-231) of under 10 nM and a CC50 (MDA-MB-231/ATCC; MDA-MB-231, read-out: LC50) of over 100 µM. It also gave a GI50 (HS 578T) of under 10 nM, a CC50 (HS 578T; read-out: LC50) of over 100 µM and a GI50 (T-47D) of under 10 nM. For the same molecule, the CC50 (T-47D; read-out: LC50) was over 100 µM, the GI50 (IGROV1; IGROV-1) was under 10 nM and the CC50 (IGROV1; IGROV-1, read-out: LC50) was over 100 µM. It also gave a GI50 (OVCAR-4; OVCAR-4) of under 10 nM, a CC50 (OVCAR-4; OVCAR-4, read-out: LC50) of over 100 µM and a GI50 (OVCAR-5; OVCAR-5) of under 10 nM. It also gave a CC50 (OVCAR-5; OVCAR-5, read-out: LC50) of over 100 µM, a GI50 (NCI/ADR-RES) of under 10 nM and a CC50 (NCI/ADR-RES; read-out: LC50) of over 100 µM. For the same molecule, the GI50 (SK-OV-3; SK-OV-3) was under 10 nM and the CC50 (SK-OV-3; SK-OV-3, read-out: LC50) was over 100 µM.
